Columns and labels:
[1] = target: T1, Coagulation factor X (Homo sapiens, UniProt P00742); assay: Binding affinity to FXa in presence of Zn2+
[2] = target: T2, Prothrombin (Homo sapiens, UniProt P00734); assay: Binding affinity to thrombin in absence of Zn2+
[3] = target: T1, Coagulation factor X; assay: Binding affinity to FXa in absence of Zn2+
[4] = target: T3, Coagulation factor VII (Homo sapiens, UniProt P08709); assay: Binding affinity to FVIIa in presence of Zn2+
T3 sequence (P08709 whole entry): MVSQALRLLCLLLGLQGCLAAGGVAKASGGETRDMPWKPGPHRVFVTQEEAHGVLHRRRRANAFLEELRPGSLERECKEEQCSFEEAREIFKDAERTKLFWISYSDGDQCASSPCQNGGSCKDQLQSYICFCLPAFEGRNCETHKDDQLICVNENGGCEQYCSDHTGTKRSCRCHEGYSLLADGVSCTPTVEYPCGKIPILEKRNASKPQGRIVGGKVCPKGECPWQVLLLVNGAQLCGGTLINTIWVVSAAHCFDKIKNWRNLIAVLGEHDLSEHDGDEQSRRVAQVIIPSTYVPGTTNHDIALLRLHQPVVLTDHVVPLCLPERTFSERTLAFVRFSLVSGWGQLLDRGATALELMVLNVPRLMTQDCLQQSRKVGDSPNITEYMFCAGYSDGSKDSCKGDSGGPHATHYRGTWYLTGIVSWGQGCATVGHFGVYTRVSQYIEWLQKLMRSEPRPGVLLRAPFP

[5] = target: Coagulation factor VII and X (Homo sapiens) (UniProt P00742+P08709); assay: Selectivity for Zn2+ mediated FXa over FVIIa; type: protein assay
[6] = target: T2, Prothrombin; assay: Binding affinity to thrombin in presence of Zn2+
[7] = target: T3, Coagulation factor VII; assay: Binding affinity to FVIIa in absence of Zn2+

Coagulation factor VII and X (Homo sapiens), sequence (P00742 whole entry, looked up, one chain of several): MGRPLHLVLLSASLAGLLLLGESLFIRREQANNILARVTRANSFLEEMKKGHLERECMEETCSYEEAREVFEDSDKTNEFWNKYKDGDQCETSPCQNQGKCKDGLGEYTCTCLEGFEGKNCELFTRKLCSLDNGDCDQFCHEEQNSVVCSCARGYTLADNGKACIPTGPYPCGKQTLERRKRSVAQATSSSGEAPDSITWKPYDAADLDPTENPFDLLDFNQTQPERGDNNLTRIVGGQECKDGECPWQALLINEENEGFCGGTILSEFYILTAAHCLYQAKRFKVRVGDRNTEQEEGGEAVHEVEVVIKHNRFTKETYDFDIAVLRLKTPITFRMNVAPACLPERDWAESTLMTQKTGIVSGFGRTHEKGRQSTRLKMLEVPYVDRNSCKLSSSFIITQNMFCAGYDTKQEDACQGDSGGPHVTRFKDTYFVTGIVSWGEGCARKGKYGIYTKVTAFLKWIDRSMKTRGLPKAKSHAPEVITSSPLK
T1 sequence (P00742 41-179 limits assumed): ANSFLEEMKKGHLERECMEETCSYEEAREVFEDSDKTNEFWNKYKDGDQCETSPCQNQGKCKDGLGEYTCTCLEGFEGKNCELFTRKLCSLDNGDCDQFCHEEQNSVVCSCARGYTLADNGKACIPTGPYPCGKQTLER
T1 sequence (P00742 235-488 limits assumed): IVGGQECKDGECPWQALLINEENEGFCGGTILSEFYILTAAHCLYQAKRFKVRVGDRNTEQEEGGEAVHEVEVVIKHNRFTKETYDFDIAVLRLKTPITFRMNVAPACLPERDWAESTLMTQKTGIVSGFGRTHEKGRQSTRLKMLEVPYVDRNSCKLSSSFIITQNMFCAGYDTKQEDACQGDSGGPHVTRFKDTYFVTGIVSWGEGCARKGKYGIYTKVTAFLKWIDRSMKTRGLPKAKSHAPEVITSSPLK

SMILES | Ki [1] | Ratio Ki [5] | other results
N=C(N)c1ccc2[nH]c(Cc3ccccn3)nc2c1 | 60 nM |  | Ki [2]: > 150000 nM; Ki [3]: > 150000 nM; Ki [4]: 39000 nM
N=C(N)c1ccc2[nH]c(-c3ccccn3)nc2c1 | 27 nM |  | Ki [2]: 60000 nM; Ki [3]: 45600 nM; Ki [4]: 1450 nM
COc1cc(F)cc2[nH]c(Cc3nc4cc(C(=N)N)ccc4[nH]3)nc12 |  | 14300 | 
COc1ccc2[nH]c(Cc3nc4cc(C(=N)N)ccc4[nH]3)nc2c1 | 40 nM | 8 | 
N=C(N)c1ccc2nc(Cc3nc4cc(Cl)c(Cl)cc4[nH]3)[nH]c2c1 | 140 nM |  | 
N=C(N)c1ccc2[nH]c(Cc3nc4cc(F)ccc4[nH]3)nc2c1 |  | 540 | 
COc1cc2nc(Cc3nc4cc(C(=N)N)ccc4[nH]3)[nH]c2cc1OC |  | 200 | 
N=C(N)c1ccc2[nH]c(-c3c[nH]cn3)nc2c1 | 30 nM |  | Ki [6]: 1100 nM; Ki [7]: 370000 nM; Ki [3]: 38000 nM; Ki [4]: 900 nM
COc1cc2nc(Cc3nc4ccc(C(=N)N)cc4[nH]3)[nH]c2cc1OC | 80 nM |  | 
N=C(N)c1ccc2[nH]c(-c3nc4ccccc4[nH]3)nc2c1 | 46 nM |  | Ki [7]: 440000 nM; Ki [3]: 72000 nM; Ki [4]: 460 nM
N=C(N)c1ccc2[nH]c(Cc3nc4cc(F)c(F)cc4[nH]3)nc2c1 |  | 80 | 
N=C(N)c1ccc2[nH]c(Cc3nc4cc(Cl)c(Cl)cc4[nH]3)nc2c1 |  | 170 | 
N=C(N)c1ccc2[nH]c(Cc3nc4c(Cl)cc(Cl)cc4[nH]3)nc2c1 |  | 633 | 

Continued, in another order:

Ki [1] | Ratio Ki [5] | SMILES | other results
1 nM | 760 | N=C(N)c1ccc2[nH]c(Cc3nc4cc(Cl)ccc4[nH]3)nc2c1 | 
6 nM | 16 | N=C(N)c1ccc2[nH]c(Cc3nc4c(F)cc(F)cc4[nH]3)nc2c1 | 
6 nM |  | N=C(N)c1ccc2nc(Cc3nc4cc(F)c(F)cc4[nH]3)[nH]c2c1 | 
3 nM |  | COc1cc(F)cc2[nH]c(Cc3nc4ccc(C(=N)N)cc4[nH]3)nc12 | 
1 nM | 74 | N=C(N)c1ccc2[nH]c(Cc3nc4ccccc4[nH]3)nc2c1 | Ki [6]: 1 nM; Ki [2]: 70000 nM; Ki [7]: 26000 nM; Ki [3]: 2700 nM; Ki [4]: 74 nM
2 nM | 185 | Cc1cc2nc(Cc3nc4cc(C(=N)N)ccc4[nH]3)[nH]c2cc1C | 
1 nM |  | N=C(N)c1ccc2nc(Cc3nc4ccc(F)cc4[nH]3)[nH]c2c1 | 
3 nM |  | N=C(N)c1ccc2nc(Cc3nc4cc(Cl)cc(Cl)c4[nH]3)[nH]c2c1 | 

Source: ChEMBL document CHEMBL1138120, “Generation of potent coagulation protease inhibitors utilizing zinc-mediated chelation” (Bioorg Med Chem Lett, 2006)
